{
  "source": "patent US20190374601A1",
  "about": "“METHODS FOR TREATING FUNGAL INFECTIONS” (priority 2017, published 2019)",
  "type_in_all_cases": "in vivo",
  "key": {"[1]": {"system": "T. mentagrophytes ATCC 24953", "test": "Clinical evaluation of infected skin, T. mentagrophytes dermatophytosis guinea pig model, Example 1", "settings": "for Percent Efficacy Clinical: evaluated study day 10, relative to vehicle control", "experimental": "A request was made to the Animal Resource Center (ARC) at Case Western Reserve University to order the required number of male albino Harlan-Sprague-Dawley Guinea-Pigs (San Diego, Calif.) with a body weight of 450-500 g. Animals were allowed to acclimate for a minimum of 5 days prior to use. Environmental controls for the animal room were set to maintain a temperature of 16 to 22° C., a relative humidity of 30-70%, and a 12:12 light-dark cycle.\nT. mentagrophytes ATCC 24953 was used as the infecting fungus. This strain was selected because it can cause skin infection and results in inflammatory reaction.\nT. mentagrophytes (from frozen stock) was sub-cultured on Potato Dextrose Agar plates and incubated at 30° C. for 5-7 days. The colonies were scraped from the plates using sterile normal saline (NaCl 0.85%) solution. After washing for three times with sterile saline the conidia were re-suspended in the same solution. Ten-fold dilutions of conidia suspension were prepared and counted using a hemacytometer. Working suspension of conidia was prepared at a final concentration of 1×10^7 Colony Forming Units (CFUs)/100 μL in normal saline.\nEach animal was anesthetized with a cocktail of xylazine and ketamine: 0.2 mL intramuscularly. Using an electric shaver, hair was clipped on left side of the guinea pig back. A closer shave was done with a disposable razor. Using a stencil, a square of 2.5 cm×2.5 cm was marked. The marked skin area was abraded with sterile fine grit sandpaper. A cell suspension containing 1×10^7 conidia in 100 μL was applied and rubbed thoroughly on the abraded skin.\nBeginning two hours post inoculation, animals were treated subcutaneously (SQ) for CD101 and orally (PO) terbinafine once daily for a period of nine days, or once a week on days 1 and 8.\nStudy Day 1: Infected the animals with T. mentagrophytes and begin treatments.\nStudy Day 9 (treatment day 9): End treatments.\n(§1) Study Day 10: Clinical evaluation of the four quadrants in the marked area was done. Hair samples were obtained from each quadrant (10 per quadrant). Hairs were planted in Potato Dextrose Agar, and incubated for 48 h for mycological evaluation. Procedures for clinical and mycological evaluations are described below.\nCD101 was administered SQ in 0.3 mL, while the terbinafine was given orally in 0.3 mL. Vehicle treated group was also included.\nClinical assessment of local changes of the infected skin area was scored as follows:\n1=Few slightly erythematous places on the skin\n2=Well-defined redness, swelling with bristling hairs.\n3=Large areas or marked redness incrustation, scaling, bald patches, ulcerated in places.\n4=Partial damage to the integument and loss of hair\n5=Extensive damage to the integument and complete loss of hair at the site of infection.\nAny other local skin reactions were noted. The assessment of clinical evaluation in the change of scores per treatment group is expressed as percentage relative to the vehicle control group of animals using the following formula:\nwhere, T=Scores in the test group. K=Scores in the untreated control"}, "T. mentagrophytes": {"system": "T. mentagrophytes", "test": "Hair root invasion test (mycological evaluation), T. mentagrophytes dermatophytosis guinea pig model, different doses once weekly, Example 2", "settings": "evaluated study day 12, relative to vehicle control", "experimental": "Procedures for animal care and use, preparation of standard inoculum, and infection of the animals were carried out following the same steps as described in Example 1.\nInfected guinea pigs were randomized into the following (1)-(5) groups (10 per group) (see Table 4): (1) a vehicle control (water+mannitol); (2) terbinafine 10 mg/kg PO days 1 and 8, as a positive control; (3) CD101 10 mg/kg SQ days 1 and 8; (4) CD101 20 mg/kg SQ days 1 and 8; and (5) CD101 40 mg/kg SQ days 1 and 8.\nAnimals were treated with CD101 SQ or PO (for terbinafine) once a week on days 1 and 8.\nStudy Day 1: Infect the animals with T. mentagrophytes and begin treatments.\nStudy Day 8: Last treatment.\nas §1, with “Day 12:” for “Day 10:”, “area is” for “area was”, “each quadrant. Hairs” for “each quadrant”, “per quadrant)” for “per quadrant). Hairs”\nThe compounds was administered SQ or PO (0.3 mL/kg […]).\nHair samples were removed with sterile forceps from four quadrants. Ten hair samples from each quadrant were inoculated onto the corresponding quadrant on the Potato Dextrose agar plate and incubated at 30° C. for 2 days. The fungal growth at the hair root was examined under a stereomicroscope. The effectiveness of a compound in reducing the number of mycologically positive hair sample per treated group was expressed as percentage relative to the untreated control group of animals using the following formula:\nwhere T=Positive hair in the test group, K=Positive hair in the Untreated control."}, "[2]": {"test": "Mortality, clinical observations and body weights after subcutaneous injection in cynomolgus monkeys", "settings": "30, 60, 120 mg/kg/dose SC once every 3 days (5 doses)", "experimental": "Dose levels were 30, 60, and 120 mg/kg/dose for Groups 2, 3, and 4, respectively. […] The dose volumes were 1.2, 0.3, 0.6, and 1.2 mL/kg spread evenly over 4, 1, 2, and 4 dose sites for Groups 1-4, respectively, on each day of dosing. The control and 120 mg/kg/dose groups each consisted of 5 males and 5 females, and the 30 and 60 mg/kg/dose groups each consisted of 3 males and 3 females.\nThe animals were observed twice daily for mortality and moribundity. Clinical examinations were performed once daily for at least 6 consecutive days, including the day of randomization, prior to randomization, prior to dosing, 1-2 hours postdosing, once daily on nondosing days, and once daily during the recovery period. Detailed physical examinations were performed at least weekly during the acclimation period until randomization, on the day of randomization, weekly (±2 days) during the study period, and on the day of the scheduled necropsies. […] Individual body weights were recorded weekly (±2 days). […] Clinical pathology parameters (hematology, coagulation, serum chemistry, and urinalysis) were analyzed during acclimation prior to randomization (Study Day −15), and on the day of the primary (Study Day 17) and recovery (Study Day 45) necropsies. […]"}},
  "note": "Starred links: 1 amine or outer side, 2 acyl side, 3 side chain; linkers in the order of their positions; H or OH if unused. Positions of bridges follow the written chain, without caps; N, C: chain ends. Non-standard residues stand in square brackets, D forms with d. Residues, ends and D or L forms follow the SMILES beside them. *: point of attachment. Orn(4R-OH,5R-OCH2CH2NMe3+) = C[N+](C)(C)CCO[C@@H](N[*:3])[C@H](O)C[C@H](N[*:1])C(=O)[*:2]; pTerphenylCO(4''-OnC5H11) = CCCCCOc1ccc(-c2ccc(-c3ccc(C(=O)*)cc3)cc2)cc1; hTyr(3S-OH,4S-OH) = N[C@H](C(=O)O)[C@H](O)[C@@H](O)c1ccc(O)cc1; Pro(3S-OH,4S-Me) = C[C@H]1CN[C@H](C(=O)O)[C@H]1O; Hyp = O=C(O)[C@@H]1C[C@@H](O)CN1",
  "data": [
    {"smiles": "CCCCCOc1ccc(-c2ccc(-c3ccc(C(=O)N[C@H]4C[C@@H](O)[C@@H](OCC[N+](C)(C)C)NC(=O)[C@@H]5[C@@H](O)[C@@H](C)CN5C(=O)[C@H]([C@@H](C)O)NC(=O)[C@H]([C@H](O)[C@@H](O)c5ccc(O)cc5)NC(=O)[C@@H]5C[C@@H](O)CN5C(=O)[C@H]([C@@H](C)O)NC4=O)cc3)cc2)cc1", "note": "[CD101] ({pTerphenylCO(4''-OnC5H11)}-[Orn(4R-OH,5R-OCH2CH2NMe3+)]T[Hyp][hTyr(3S-OH,4S-OH)]T[Pro(3S-OH,4S-Me)]; lactam 1-C)", "values": [
      {"measurement": "Percent Efficacy Clinical", "setting": "[1]; 35 mg/kg SQ daily for nine days", "value": 84.0, "unit": "%"},
      {"measurement": "Percent Efficacy Clinical", "setting": "[1]; 35 mg/kg SQ once a week (days 1 and 8)", "value": 78.7, "unit": "%"},
      {"measurement": "clinical signs versus vehicle control group", "setting": "[1]; guinea pigs, 35 mg/kg SQ daily and weekly", "value": "fewer clinical signs than the vehicle control group beginning on day 5 post inoculation"},
      {"measurement": "injection site reaction", "setting": "[1]; guinea pigs, 35 mg/kg SQ daily or once a week", "value": "no bruising or redness was noted at the injection site"},
      {"measurement": "Percent Efficacy Mycological", "setting": "T. mentagrophytes; 10 mg/kg SQ days 1 and 8", "value": 80.9, "unit": "%"},
      {"measurement": "Percent Efficacy Mycological", "setting": "T. mentagrophytes; 20 mg/kg SQ days 1 and 8", "value": 82.9, "unit": "%"},
      {"measurement": "Percent Efficacy Mycological", "setting": "T. mentagrophytes; 40 mg/kg SQ days 1 and 8", "value": 98.5, "unit": "%"},
      {"measurement": "survival", "setting": "[2]", "value": "All animals survived to the scheduled necropsies"},
      {"measurement": "test article-related clinical observations and effects on body weights", "setting": "[2]", "value": "no test article-related clinical observations or effects on body weights"}
    ]}
  ]
}
